Test results reported in patent US20110281852A1 (priority 2010, published 2011).

Assays:
C/EBPα [1] = assay: Real-Time RT-PCR, C/EBPα mRNA in HWP; type: cell-based, human; conditions: day 15
From the text: (§1) Quantitative Real-Time RT-PCR: Real-Time reverse transcriptase polymerase chain reaction (RT-PCR) analysis was used to measure mRNA expression of human genes PPARγ, C/EBPα, GATA-2 and GATA-3 under the control of β-actin. Briefly, total RNA was isolated from HWP following treatment at days 15 with Trizol reagent (Invitrogen, Carlsbad, Calif., USA) according to the manufacturer's instruction. RNA was quantified using absorption of light at 260 and 280 nm, and sample integrity was checked by 1.5% agarose gel electrophoresis. 0.8 μg of total RNA from each sample was used for reverse transcription reaction using the TaqMan Reverse Transcription Reagents (Applied Biosystems, Foster City, Calif., USA) following the Manufacturer's instructions. PCR was done using the SYBR green Master Mix (Applied Biosystems, Foster City, Calif., USA) following the manufacturer's instructions. The temperature cycling conditions of amplification were as follows: an initial step of denaturation at 95° C. for 10 min, 40 cycles of denaturation at 95° C. for 30 s, annealing at 55° C. for 30 s, and elongation at 72° C. for 30 s. Real-Time RT-PCR was performed using Mx3000P Real-Time Thermocyclers (Statagene, La Jolla, Calif., USA). The relative mRNA levels of these genes were calculated by Pfaffl's mathematical method (Pfaffl, M W, Nucleic Acid Res (2001) 29:e45) and normalized with control-treated groups.

GATA-3 [2] = assay: Real-Time RT-PCR, GATA-3 mRNA in HWP; type: cell-based, human; conditions: day 15
From the text: as §1

GATA-2 = assay: Real-Time RT-PCR, GATA-2 mRNA in HWP; type: cell-based, human; conditions: day 15
From the text: as §1

[3] = system: human white preadipocytes (HWP); assay: Oil-Red-O staining and quantification, HWP differentiation; type: cell-based; conditions: 15 days post differentiation induction
Method: Cell culture: Cell culture was carried out following the protocol provided by Promocell Company. […] Differentiation was induced with preadipocyte Differentiation Medium (DM) for 3 days (days 3), where upon the medium was changed to adipocyte Nutrition Medium (NM) and cultured for 12 days (days 15) (HWP cell line and media were purchased from Promocell, Heidelberg, Germany).
Oil-Red-O Staining and quantification: Oil-Red-O Staining and quantitative Oil-Red-O Staining were performed as previously reported. Briefly, medium was removed and cells were washed with PBS twice, fixed with 3.7% formalin at room temperature for 30 min, then rinsed with water, added 60% 2-propanol and incubated for 5 minutes, then moved out 2-propanol and stained cells with Oil-Red-O solution (Oil-Red-O store solution (3 mg/ml in pure 2-propanol): water=3:2) at room temperature for 10 min. Then the Oil-Red-O solution was removed and cells were washed 3 times with water. Images were obtained using an Olympus IX70 inverted microscope equipped for phase-contrast microscopy (Olympus, Tokyo, Japan). After staining, the cells were washed twice with 70% ethanol to remove excess stain. Stained oil droplets in the cells were dissolved in 2-propanol containing 4% Nonidet-P40 (Fisher Scientific, Pittsburgh, Pa., USA) and OD values were measured at an absorbance of 490 nm.

[4] = system: human white preadipocytes (HWP); assay: MTT assay, viability of HWP during differentiation; type: cell-based; conditions: 15 days of differentiation
Method: Cell culture: Cell culture was carried out following the protocol provided by Promocell Company. Briefly, human white preadipocytes (HWP's […]) were cultured at 37° C. in a humidified 5% CO2 atmosphere and grown in a preadipocyte Growth medium (GM) with 100 units/ml penicillin and 100 μg/ml streptomycin until confluence (day 0). Differentiation was induced with preadipocyte Differentiation Medium (DM) for 3 days (days 3), where upon the medium was changed to adipocyte Nutrition Medium (NM) and cultured for 12 days (days 15) (HWP cell line and media were purchased from Promocell, Heidelberg, Germany).

PPARγ [5] = assay: Immunoblot, PPARγ protein in HWP; type: cell-based, human; conditions: day 15
Method: (§2) Immunoblot Analysis: Protein expression of GATA-2, GATA-3, PPARγ and C/EBPα were assessed by Western Blot. Total proteins were isolated from HWP treated with compounds or vehicles on day 15. The cells were washed twice with PBS, lysed in a lysis buffer containing HEPES-Tx-PI buffer: […] HEPES, 5 mM EDTA, 350 mM Sucrose, 1 μg/ml leupeptin, 1 μg/ml pepstatin, 1% Triton-X, 1 mM PMSF), processed with a 25G needle and centrifuged at 10,000 rpm for 5 min. Protein concentration was determined using the Micro BCA Protein Assay Kit (Fisher Scientific, Pittsburgh, Pa., USA) according to the manufacturers instructions. 20 μg proteins were loaded and separated by electrophoresis using the BioRad Electrophoretic System (60 V for 1 hour followed by 90 V for 5 hours). The proteins were then transferred to nitrocellulose membranes at 35 V overnight. The membrane was blocked for 1 hour at room temperature in 5% nonfat milk in Tris-buffered saline (TBS), then washed with Tween-20-TBS (TTBS, 0.1% Tween-20) three times (15 min, 5 min, 5 min), followed by incubation with primary antibodies human GATA-2, GATA-3, PPARγ, C/EBPα and β-actin (dilution 1:200) (all antibodies were purchased from Santa Cruz Biotechnology, Santa Cruz, Calif., USA) at room temperature for 2 hours. […]

C/EBPα [6] = assay: Immunoblot, C/EBPα protein in HWP; type: cell-based, human; conditions: day 15
Method: as §2

GATA-3 [7] = assay: Immunoblot, GATA-3 protein in HWP; type: cell-based, human; conditions: day 15
Method: Immunoblot Analysis: Protein expression of GATA-2, GATA-3, PPARγ and C/EBPα were assessed by Western Blot. Total proteins were isolated from HWP treated with compounds or vehicles on day 15. The cells were washed twice with PBS, lysed in a lysis buffer containing HEPES-Tx-PI buffer: […] HEPES, 5 mM EDTA, 350 mM Sucrose, 1 μg/ml leupeptin, 1 μg/ml pepstatin, 1% Triton-X, 1 mM PMSF), processed with a 25G needle and centrifuged at 10,000 rpm for 5 min. Protein concentration was determined using the Micro BCA Protein Assay Kit (Fisher Scientific, Pittsburgh, Pa., USA) according to the manufacturers instructions. 20 μg proteins were loaded and separated by electrophoresis using the BioRad Electrophoretic System (60 V for 1 hour followed by 90 V for 5 hours). The proteins were then transferred to nitrocellulose membranes at 35 V overnight. The membrane was blocked for 1 hour at room temperature in 5% nonfat milk in Tris-buffered saline (TBS), then washed with Tween-20-TBS (TTBS, 0.1% Tween-20) three times (15 min, 5 min, 5 min), followed by incubation with primary antibodies human GATA-2, GATA-3, PPARγ, C/EBPα and β-actin (dilution 1:200) (all antibodies were purchased from Santa Cruz Biotechnology, Santa Cruz, Calif., USA) at room temperature for 2 hours. The membrane was rinsed three times (15 min, 5 min, 5 min), then incubated at room temperature for 1 hour with Horseradish peroxidase-conjugated second antibody (1:10,000). The membrane was then incubated in ECL reagent (GE Healthcare, Piscataway, N.J., USA) for 1 minute. Protein was visualized using the UVP image analysis system (UVP, Upland, Calif., USA).

PPARγ [8] = assay: Real-Time RT-PCR, PPARγ mRNA in HWP; type: cell-based, human; conditions: day 15
From the text: as §1

Compound | change in C/EBPα mRNA expression (C/EBPα [1]) | GATA-3 mRNA expression vs control group (GATA-3 [2]; 1 μM) [fold] | GATA-3 mRNA expression vs control group (GATA-3 [2]; 2 μM) [fold] | GATA-3 mRNA expression vs control group (GATA-3 [2]; 4 μM) [fold] | GATA-2 mRNA expression vs vehicle (control) group (GATA-2; 1 μM) [fold] | GATA-2 mRNA expression vs vehicle (control) group (GATA-2; 2 μM) [fold] | GATA-2 mRNA expression vs vehicle (control) group (GATA-2; 4 μM) [fold] | reduction in lipid content ([3]; 1 μM) [%] | reduction in lipid content ([3]; 2 μM) [%] | reduction in lipid content ([3]; 4 μM) [%] | reduction in lipid content ([3]; 8 μM) [%] | decrease of cell viability vs control ([4]; 1 μM) [%] | decrease of cell viability vs control ([4]; 2 μM) [%] | decrease of cell viability vs control ([4]; 4 μM) [%] | decrease of cell viability vs control ([4]; 8 μM) [%] | PPARγ protein expression, drug-treated vs control cells (PPARγ [5]) | C/EBPα protein expression, drug-treated vs control cells (C/EBPα [6]) | GATA-3 protein expression vs controls (GATA-3 [7]; 1 μM) [fold] | GATA-3 protein expression vs controls (GATA-3 [7]; 2 μM) [fold] | GATA-3 protein expression vs controls (GATA-3 [7]; 4 μM) [fold] | other results
evodiamine | no significant changes | 2.61 | 2.7 | 2.79 | 1.36 | 1.5 | 2.08 | 27.8 | 46.7 | 84.6 | 112.6 | 17.7 | 30.5 | 34.2 | 53.6 | no significant difference | no significant difference | 4.21 | 4.95 | 6.57 | reduction in lipid content ([3]; 0.125 μM): 7.5%; reduction in lipid content ([3]; 0.25 μM): 13.8%; reduction in lipid content ([3]; 0.5 μM): 19%; decrease of cell viability vs control ([4]; 0.25 μM): 14.1%; decrease of cell viability vs control ([4]; 0.5 μM): 15%; change in PPARγ mRNA expression (PPARγ [8]): no significant changes
COc1ccc2cc3[n+](cc2c1OC)CCc1cc2c(cc1-3)OCO2.[Cl-] [berberine, Berberine (Chloride Form)] | no significant changes | 2.77 | 2.79 | 4.43 | 3.87 | 4.1 | 3.8 | 31.9 | 42.9 | 60.6 | 66.4 | −3.1 | 1.1 | −0.0 | 1.3 | no significant difference | no significant difference | 5.63 | 5.65 | 6.43 | GATA-3 mRNA expression vs control group (GATA-3 [2]; 8 μM): 6.77 fold; GATA-2 mRNA expression vs vehicle (control) group (GATA-2; 8 μM): 5.33 fold; GATA-3 protein expression vs controls (GATA-3 [7]; 8 μM): 5.37 fold; change in PPARγ mRNA expression (PPARγ [8]): no significant changes
